According to PMC6792352, “Limited Chemical Structural Diversity Found to Modulate Thyroid Hormone Receptor in the Tox21 Chemical Library” (Environmental Health Perspectives, 2019):
Structures can show the parent of a compound that is named as a salt.

Experiment: in vitro
Settings: rat, gh3-tre-luc cells, AC50 (uM) modified / 1000
In the case of Nc1cccc2c(=O)[nH][nH]c(=O)c12 [Luminol], the CC50 at 24 h is reported as greater than 90 µM.
For CC1CN(c2ccccc2)NC1=O (stereo not drawn) [4-Methyl-1-phenylpyrazolidin-3-one], the CC50 at 24 h was greater than 90 µM.
CCCCc1ccc(N)cc1 [4-Butylaniline] gave a CC50 at 24 h greater than 90 µM.
For CCOc1ccc(N=Nc2ccc(/C=C/c3ccc(N=Nc4ccc(OCC)cc4)cc3S(=O)(=O)O)c(S(=O)(=O)O)c2)cc1 [C.I. Direct Yellow 12], the CC50 at 24 h was 42.7 µM.
OCC(S)CS (stereo not drawn) [Dimercaprol] showed a CC50 at 24 h of 12.5 µM.
COCCOc1cc2cc(C(=O)NC3CCN(C(C)C)CC3)n(CC(=O)Nc3ccc(Cl)cn3)c2cn1 [SAR377142] showed a CC50 at 24 h of 71.7 µM.
CC#Cc1cc(C)nc(Nc2ccccc2)n1 [Mepanipyrim] showed a CC50 at 24 h greater than 90 µM.
Work on CC(=O)N[C@@H](CS)C(=O)O [N-Acetyl-L-cysteine] yielded a CC50 at 24 h greater than 90 µM.
Work on CCCCCCOC(=O)CCCCCCCC(=O)OCCCCCC [Dihexyl nonanedioate] yielded a CC50 at 24 h greater than 90 µM.
For CNC1CCCN(c2c(F)cc3c(=O)c(C(=O)O)cn(C4CC4)c3c2OC)C1 (stereo not drawn) [Balofloxacin], the CC50 at 24 h was greater than 50 µM.
CCn1cc(C(=O)O)c(=O)c2cc(F)c(N3CCNCC3)nc21 [Enoxacin] showed a CC50 at 24 h greater than 20 µM.
For CN(C)/C=N/c1c(I)cc(I)c(CCC(=O)O)c1I [Ipodate sodium], the CC50 at 24 h was greater than 50 µM.
Work on N[C@H](C(=O)O)c1ccc(O)cc1 [Oxfenicine] yielded a CC50 at 24 h greater than 50 µM.
In the case of CCc1ccc(O)cc1 [4-Ethylphenol], the CC50 at 24 h is reported as greater than 90 µM.
In the case of COc1cc(C)nc(-n2nc(C)cc2OC)n1 [Epirizole], the CC50 at 24 h is reported as greater than 20 µM.
Work on CCC(C(=O)OCCOCCN(CC)CC)c1ccccc1 (stereo not drawn) [Butamirate citrate] yielded a CC50 at 24 h greater than 50 µM.
Cc1nc2sccn2c(=O)c1CCN1CCC(=C(c2ccc(F)cc2)c2ccc(F)cc2)CC1 [Ritanserin] gave a CC50 at 24 h of 28.7 µM.
Nc1ncc([N+](=O)[O-])s1 [2-Amino-5-nitrothiazole] gave a CC50 at 24 h greater than 90 µM.
CCCCCCCCCCC[C@@H](C[C@@H]1OC(=O)[C@H]1CCCCCC)OC(=O)[C@H](CC(C)C)NC=O [Orlistat] gave a CC50 at 24 h greater than 50 µM.
CN/C(=N/CC1CCOC1)N[N+](=O)[O-] (stereo not drawn) [Dinotefuran] gave a CC50 at 24 h greater than 90 µM.
In the case of OCCN1CCN(CC/C=C2/c3ccccc3Sc3ccc(C(F)(F)F)cc32)CC1 [cis-Flupentixol], the CC50 at 24 h is reported as 12.1 µM.
CC(C)c1cc(C(C)C)cc(C(C)C)c1 [1,3,5-Triisopropylbenzene] gave a CC50 at 24 h greater than 90 µM.
With CC(=O)c1ccc([N+](=O)[O-])cc1 [4-Nitroacetophenone] the CC50 at 24 h was greater than 90 µM.
In the case of O=C(N/N=C/c1ccc([N+](=O)[O-])o1)c1ccc(O)cc1 [Nifuroxazide], the CC50 at 24 h is reported as greater than 20 µM.
Molecule CC(=O)OCC1=C(C(=O)O)N2C(=O)[C@@H](NC(=O)CSc3ccncc3)[C@H]2SC1 [Cephapirin sodium] has a CC50 at 24 h greater than 50 µM.
With CCc1cccc(C)c1N(C(=O)CCl)C(C)COC (stereo not drawn) [Metolachlor] the CC50 at 24 h was greater than 90 µM.
Work on C=C(C)C(=O)O [Methacrylic acid] yielded a CC50 at 24 h greater than 90 µM.
Molecule c1ccc2cc3c4ccccc4c4ccccc4c3cc2c1 [Dibenz[a,c]anthracene] has a CC50 at 24 h greater than 90 µM.
CC[C@@]1(c2ccccc2)NC(=O)N(C)C1=O [(S)-Mephenytoin] showed a CC50 at 24 h greater than 50 µM.
With N#CC1(N=NC2(C#N)CCCCC2)CCCCC1 [1,1'-Diazene-1,2-diyldicyclohexanecarbonitrile] the CC50 at 24 h was greater than 90 µM.
With COCC(C)N (stereo not drawn) [1-Methoxy-2-propylamine] the CC50 at 24 h was greater than 90 µM.
In the case of CCC/C=C/CO [(E)-2-Hexen-1-ol], the CC50 at 24 h is reported as greater than 90 µM.
Molecule C#C[C@]1(O)CC[C@H]2[C@@H]3CCc4cc(OC5CCCC5)ccc4[C@H]3CC[C@@]21C [Quinestrol] has a CC50 at 24 h of 16 µM.
CC(C)c1ccc(C#N)cc1 [4-Isopropylbenzonitrile] showed a CC50 at 24 h greater than 90 µM.
Molecule CC(CN(C)C)C(C)(O)Cc1ccc(Cl)cc1 (stereo not drawn) [Clobutinol hydrochloride] has a CC50 at 24 h greater than 50 µM.
NC(=S)NS(=O)(=O)c1ccc(N)cc1 [Sulfathiourea] showed a CC50 at 24 h greater than 50 µM.

Same assay, conditions: rat, gh3-tre-luc cells, AC50 (uM) modified / 1000, Tox21_110001=Tox21_201650; viability, 1 nM T3 present, 24 h
With Nc1cccnc1 [3-Pyridinamine] the CC50 at 24 h was greater than 90 µM.

Same assay, conditions: rat, gh3-tre-luc cells, AC50 (uM) modified / 1000, Tox21_110001=Tox21_301059; viability, 1 nM T3 present, 24 h
In the case of CCOP(=O)(SC(C)CC)N1CCSC1=O (stereo not drawn) [Fosthiazate], the CC50 at 24 h is reported as greater than 90 µM.

Same assay, conditions: rat, gh3-tre-luc cells, AC50 (uM) modified / 1000, Tox21_110001=Tox21_301751; viability, 1 nM T3 present, 24 h
COP(=O)(OC)O/C(=C\Cl)c1cc(Cl)c(Cl)cc1Cl [Z-Tetrachlorvinphos] showed a CC50 at 24 h greater than 90 µM.
